Patent US20080166427A1, “Method for Reducing Gastrointestinal Toxicity Due to the Administration of Tegafur” (Taiho Pharmaceutical Co., Ltd, priority 2004, published 2008)

How the values were obtained:
[1] = tested on: advanced gastric cancer; settings: in vivo
[2] = clinical; format: in vivo, human
Protocol: The patient's diagnosis were CRC (7), breast (3), gastric (3) and other (4).
A total of 17 patients were entered in this pharmacokinetic study after informed consent.
Blood was sampled during 24 hours. […] Blood samples were taken by venipuncture in heparinized tubes of 9 ml and transported on ice for immediate processing.
Blood samples were centrifuged for 5 min at 4000 rpm and 4° C. The plasma was transferred to 2 eppendorf vials of 2 ml and stored at −20° C.
Analysis for tegafur and cyanuric acid was performed by validated HPLC assays, while the analysis of the other compounds was performed after derivatization by validated gas-chromatography-mass spectrometry methods as described previously [Peters G. J., Noordhuis P., Van Kuilenburg A. B. P., Schornagel J. H., Gall H., Turner S. L., Swart M. S., Voorn D., Van Gennip A. H., Wanders J., Holwerda U., Smid K., Giaccone G., Fumoleau P. and Van Groeningen C. […] Cancer Chemother. Pharmacol., 38: 1-12, 2003.].
The pharmacokinetic parameters for tegafur, 5FU, oxonic acid, cyan uric acid, and CDHP were calculated with the computer program WinNonLin (version 1.5). The data were analyzed using non-compartment modeling. The parameters that could be established were: time point of maximum observed concentration in plasma (Tmax), concentration in plasma corresponding to Tmax (Cmax), terminal half-life (t½), area under the plasma concentration versus time (C-t) curve (AUCall).

[3] = biological target: T1, dihydropyrimidine dehydrogenase (DPD) (Homo sapiens, UniProt Q12882); test: Inhibition of dihydropyrimidine dehydrogenase; format: biochemical; settings: vs uracil
T1 sequence (Q12882 4-1025): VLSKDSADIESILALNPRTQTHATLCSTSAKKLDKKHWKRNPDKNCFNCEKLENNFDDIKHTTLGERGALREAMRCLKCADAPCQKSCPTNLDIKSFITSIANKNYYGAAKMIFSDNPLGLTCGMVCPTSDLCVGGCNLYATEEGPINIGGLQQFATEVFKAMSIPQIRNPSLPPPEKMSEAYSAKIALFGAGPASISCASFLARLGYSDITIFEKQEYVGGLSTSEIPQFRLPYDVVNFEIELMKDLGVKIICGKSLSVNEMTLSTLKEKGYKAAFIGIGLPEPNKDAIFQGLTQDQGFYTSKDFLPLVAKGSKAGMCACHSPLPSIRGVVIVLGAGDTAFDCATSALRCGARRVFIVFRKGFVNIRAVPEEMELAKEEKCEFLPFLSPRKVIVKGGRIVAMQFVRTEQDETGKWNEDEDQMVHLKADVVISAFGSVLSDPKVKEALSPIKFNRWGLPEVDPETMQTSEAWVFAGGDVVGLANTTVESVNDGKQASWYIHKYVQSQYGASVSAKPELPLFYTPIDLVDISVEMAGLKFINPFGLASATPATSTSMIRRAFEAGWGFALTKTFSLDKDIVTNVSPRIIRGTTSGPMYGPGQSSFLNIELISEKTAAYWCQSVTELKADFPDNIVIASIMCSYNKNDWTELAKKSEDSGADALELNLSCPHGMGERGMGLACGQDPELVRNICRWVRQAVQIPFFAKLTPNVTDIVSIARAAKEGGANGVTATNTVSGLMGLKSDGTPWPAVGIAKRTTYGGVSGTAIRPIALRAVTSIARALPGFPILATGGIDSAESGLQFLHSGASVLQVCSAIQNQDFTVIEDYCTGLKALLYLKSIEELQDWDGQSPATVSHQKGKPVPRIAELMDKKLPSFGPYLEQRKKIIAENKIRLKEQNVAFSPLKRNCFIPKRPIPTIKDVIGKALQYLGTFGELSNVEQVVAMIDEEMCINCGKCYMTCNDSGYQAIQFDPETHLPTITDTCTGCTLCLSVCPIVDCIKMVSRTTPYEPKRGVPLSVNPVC
Source text: It is gradually converted to 5-FU in vivo. • CDHP inhibits the catabolism of 5-FU by reversibly inhibiting the enzyme of dihydropyrimidine dehydrogenase (DPD). […] CDHP helps maintain effective blood and tumor concentrations of 5-FU for a prolonged period thus potentially achieving a similar therapeutic effect as protracted infusion of 5-FU. • Oxo blocks phosphorylation of 5-FU by orotate phosphoribosyltransferase (OPRT) in the gastrointestinal tract. […] Oxo is acid labile and thus its bioavailability is affected by food intake.

[4] = human, in vivo, po, 35 mg/m2, AUCall
[5] = human, in vivo, po, 35 mg/m2, Cmax
[6] = human, in vivo, po, 35 mg/m2, Tmax
[7] = human, in vivo, po, 35 mg/m2, t½
[8] = comparison fasting vs feeding group, S-1 35 mg/m^2

SMILES | AUC [2, 4] | Cmax [2, 5] | Tmax [2, 6] | half-life [2, 7] | Tmax, without breakfast vs after breakfast ([2]; in vivo) | t½, fasting vs feeding group ([2]; in vivo) | further results
N.N.[Cl][Pt][Cl] [cisplatin] |  |  |  |  |  |  | recommended dose for the phase II portion [1]: 60 mg/m^2
O=c1[nH]c(=O)[nH]c(=O)[nH]1 [CA, cyanuric acid] |  |  |  |  |  |  | AUCall, fasting vs feeding group [2, 8]: higher values in the feeding group as compared to the fasting group; Cmax, fasting vs feeding group [2, 8]: not significantly different; Tmax, without breakfast vs after breakfast [2, 8]: faster Tmax without breakfast; t½, fasting vs feeding group [2, 8]: not significantly different; AUC ([2]; human, in vivo, po, 35 mg/m2, plasma, mean, S-1 35 mg/m^2 oral, fasted patients, read-out: AUCall): 0.517 µg·h/mL; Cmax ([2]; human, in vivo, po, 35 mg/m2, plasma, mean, S-1 35 mg/m^2 oral, fasted patients, read-out: Cmax): 0.118 µg/mL; Tmax ([2]; human, in vivo, po, 35 mg/m2, plasma, mean, S-1 35 mg/m^2 oral, fasted patients, read-out: Tmax): 1.3 h; half-life ([2]; human, in vivo, po, 35 mg/m2, plasma, mean, S-1 35 mg/m^2 oral, fasted patients, read-out: t½ (converted)): 5.3 h; AUC ([2]; human, in vivo, po, 35 mg/m2, plasma, mean, S-1 35 mg/m^2 oral, fed patients, read-out: AUCall): 1.22 µg·h/mL; Cmax ([2]; human, in vivo, po, 35 mg/m2, plasma, mean, S-1 35 mg/m^2 oral, fed patients, read-out: Cmax): 0.16 µg/mL; Tmax ([2]; human, in vivo, po, 35 mg/m2, plasma, mean, S-1 35 mg/m^2 oral, fed patients, read-out: Tmax): 3.5 h; half-life ([2]; human, in vivo, po, 35 mg/m2, plasma, mean, S-1 35 mg/m^2 oral, fed patients, read-out: t½ (converted)): 6.7 h
O=C(O)c1nc(=O)[nH]c(=O)[nH]1 [Oxo, potassium oxonate] |  |  | 1.6 h | 3.9 h | significantly faster without breakfast | not significantly different | effect of food on bioavailability ([2]; human, in vivo, po): profound effect; AUCall ([2]; human, in vivo, po, 35 mg/m2): 0.8087 µg·h/mL; Cmax ([2]; human, in vivo, po, 35 mg/m2): 0.1581 µg/mL
Oc1cc(O)c(Cl)cn1 [CDHP, 5-chloro-2,4-dihydroxypyridine] | 1.92 µg·h/mL | 0.464 µg/mL | 1.1 h | 4.5 h | reached earlier without breakfast | no significant difference | potency of DPD inhibition relative to uracil [3]: 180 fold

Second part, led by results:

AUC [2, 4] | Cmax [2, 5] | Tmax [2, 6] | half-life [2, 7] | Tmax, without breakfast vs after breakfast ([2]; in vivo) | t½, fasting vs feeding group ([2]; in vivo) | SMILES | further results
1.1 µg·h/mL | 0.21 µg/mL | 1.8 h | 2.2 h | reached earlier without breakfast | no significant difference | O=c1[nH]cc(F)c(=O)[nH]1 [5-FU, 5-fluorouracil, reference compound] | 
15.7 µg·h/mL | 2.37 µg/mL |  | 8.6 h | earlier without breakfast | no significant difference | O=c1[nH]c(=O)n(C2CCCO2)cc1F (racemic) [FT, 5-Fluoro-1-[(RS)-tetrahydrofuran-2-yl]pyrimidine-2,4-(1H,3H)-dione, reference compound] | Tmax ([2]; human, in vivo, po, 35 mg/m2): 0.6 h
